Reference: publication PMC12051620, “Molecular basis underlying the specificity of an antagonist AA92593 for mammalian melanopsins” (The Journal of Biological Chemistry, 2025)

Columns and labels:
[1] = target: T1, human melanopsin F94^2.61C/S188^ECL2T/S269^6.52A mutant (Homo sapiens, UniProt Q9UHM6, F127C/S222T/S313A); assay: GsX GloSensor assay with Gsα/q11; type: cell-based; conditions: 16.7 μM AA92593, COS-1 cells
T1 construct: expressed in transfected cells; host or cells: COS-1
Source text: (§1) The single substitutions F94^2.61C, S188^ECL2T, and S269^6.52A in mammalian melanopsins reduced the inhibitory effects of AA92593 (Figs. 2G and 3E). We suspected that the combination of these substitutions would further decrease the AA92593 effect. We thus introduced the triple substitutions F94^2.61C/S188^ECL2T/S269^6.52A into human and mouse melanopsins and examined the inhibitory effects of AA92593. In both mammalian melanopsins, the F94^2.61C/S188^ECL2T/S269^6.52A substitution reduced the inhibitory effect of AA92593 more than the single substitutions (∼63% and ∼35% reductions for human and mouse melanopsins, respectively) (Figs. 2, F and G, 3, D and E).
(§2) For GloSensor assay, opsins, GloSensor assay sensor (coded by pGlo-22F), and NanoBiT-tagged G proteins were transiently expressed in COS-1 cells (kindly provided from Dr David Farrens, Oregon Health and Science University) using PEI as described previously ([24], [52]). For the GsX GloSensor assay ([12], [13]), each well of a 96-well assay plate (Corning) was transfected with 50 ng opsin plasmid, 16.7 ng G protein plasmid, 50 ng pGlo-22F plasmid (Promega), and 500 ng PEI in 25 μl Opti-mem and 75 μl Dulbecco's modified Eagle's medium (D-MEM). […] For GFP-fluorescence microscopy, a 35-mm cell culture dish (IWAKI) was transfected with 2 μg melanopsin-GFP plasmid and 8 μg PEI in 400 μl Opti-mem and 1.2 ml D-MEM. […]

[2] = target: T2, mouse melanopsin F94^2.61C/S188^ECL2T/S269^6.52A mutant (Mus musculus, UniProt Q9QXZ9, F126C/S221T/S310A); assay: GsX GloSensor assay with Gsα/q11; type: cell-based; conditions: 16.7 μM AA92593, COS-1 cells
T2 construct: expressed in transfected cells; host or cells: COS-1
T2 sequence (Q9QXZ9 1-381 F126C/S221T/S310A): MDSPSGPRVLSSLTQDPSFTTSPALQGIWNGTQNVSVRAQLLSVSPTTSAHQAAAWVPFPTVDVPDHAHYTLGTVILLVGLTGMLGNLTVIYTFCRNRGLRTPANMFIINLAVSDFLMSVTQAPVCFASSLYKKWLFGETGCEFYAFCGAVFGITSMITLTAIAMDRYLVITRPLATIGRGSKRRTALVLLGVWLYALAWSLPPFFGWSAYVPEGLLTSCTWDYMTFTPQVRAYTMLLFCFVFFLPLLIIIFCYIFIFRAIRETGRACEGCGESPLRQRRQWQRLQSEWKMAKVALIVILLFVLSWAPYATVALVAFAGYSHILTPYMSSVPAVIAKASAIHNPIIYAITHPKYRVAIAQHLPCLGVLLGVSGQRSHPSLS
Source text: as §1, §2

T1 sequence (Q9UHM6 1-384 F127C/S222T/S313A): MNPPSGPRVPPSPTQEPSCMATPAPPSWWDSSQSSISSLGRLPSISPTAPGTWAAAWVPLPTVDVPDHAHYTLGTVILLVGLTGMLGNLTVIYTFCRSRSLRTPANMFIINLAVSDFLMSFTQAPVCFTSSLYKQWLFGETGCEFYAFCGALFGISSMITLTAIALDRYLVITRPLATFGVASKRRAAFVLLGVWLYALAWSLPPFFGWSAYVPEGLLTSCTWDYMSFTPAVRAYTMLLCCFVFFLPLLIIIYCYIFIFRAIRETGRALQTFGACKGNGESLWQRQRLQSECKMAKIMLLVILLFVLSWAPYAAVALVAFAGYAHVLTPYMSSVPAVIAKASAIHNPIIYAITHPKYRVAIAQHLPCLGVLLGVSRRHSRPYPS

COc1ccc(S(=O)(=O)N2CCCCC2)cc1C [AA92593]
reduction of the inhibitory effect of AA92593 vs WT [1]: ~63%
reduction of the inhibitory effect of AA92593 vs WT [2]: ~35%
